Measurements reported in ChEMBL document CHEMBL1201862, “PubChem BioAssay data set” (2004).
Where “and” joins values, the source holds several entries; their conditions need not be identical. Equal entries are not always repeated.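 1) Cells in 96-well plates. 2) Compound, 48 h, 5 concentrations. 3) Linear interpolation between surrounding doses. 4) Unreached endpoint = highest concentration. The concentration for 50% growth inhibition is given as GI50.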 Calls of active or inactive are those of the source. Cut-off read from the data, not from the text of the source: active = GI50 up to about 1.1 µM and inactive = higher.

Legend:
Test in all cases: inhibition of tumour cell growth, NCI panel, 48 h
[1] = tested on: A549
[2] = tested on: CAKI-1
[3] = tested on: EKVX
[4] = tested on: HL-60
[5] = tested on: HT-29
[6] = tested on: IGROV-1
[7] = tested on: KM12
[8] = tested on: M14
[9] = tested on: MDA-MB-231
[10] = tested on: OVCAR-4
[11] = tested on: SF-268
[12] = tested on: SF-539
[13] = tested on: SK-MEL-28
[14] = tested on: SNB-19
[15] = tested on: SW-620
[16] = tested on: U-251
[17] = tested on: UACC-257
[18] = tested on: UACC-62
[19] = tested on: SNB-75

| Compound | GI50 [1] | GI50 [2] | GI50 [3] | GI50 [4] | GI50 [5] | GI50 [6] | GI50 [7] | GI50 [8] | GI50 [9] | GI50 [10] | GI50 [11] | GI50 [12] | GI50 [13] | GI50 [14] | GI50 [15] | GI50 [16] | GI50 [17] | GI50 [18] | GI50 [19] |
| --- | --- | --- | --- | --- | --- | --- | --- | --- | --- | --- | --- | --- | --- | --- | --- | --- | --- | --- | --- |
| O=C1N2CCc3c([nH]c4ccccc34)C23CC2CCCC12S3 (stereo not given) | 17.7 µM (inactive) | > 50 µM (inactive) | 47.2 µM (inactive) | > 50 µM (inactive) | 18.4 µM (inactive) | 24.8 µM (inactive) | 25.4 µM (inactive) | > 50 µM (inactive) | > 50 µM (inactive) | 41 µM (inactive) | 36.1 µM (inactive) | > 50 µM (inactive) | 45.3 µM (inactive) | > 50 µM (inactive) | > 50 µM (inactive) | > 50 µM (inactive) | 18.2 µM (inactive) | 36.7 µM (inactive) | – |
| COC(=O)C1CCC(=O)N1C(c1ccc(OC)cc1)c1cc(OC)c(OC)c(OC)c1 (stereo not given) | 0.449 µM (active) | 0.313 µM (active) | – | 0.245 µM (active) | 0.255 µM (active) | 0.274 µM (active) | 0.146 µM (active) | 0.322 µM (active) | 3.24 µM (inactive) | – | 0.625 µM (active) | 0.274 µM (active) | > 100 µM (inactive) | 0.531 µM (active) | 0.384 µM (active) | 0.364 µM (active) | – | 0.163 µM (active) | 389 nM (active) |
| NC(CC(=O)OCc1ccccc1)C(=O)OCc1ccccc1 (stereo not given) | > 100 µM (inactive) | 63.1 µM (inactive) | > 100 µM (inactive) | – | – | > 100 µM (inactive) | > 100 µM (inactive) | > 100 µM (inactive) | – | – | > 100 µM (inactive) | > 100 µM (inactive) | > 100 µM (inactive) | > 100 µM (inactive) | > 100 µM (inactive) | – | > 100 µM (inactive) | > 100 µM (inactive) | – |
| O=c1[nH]ncc2[nH]c3c(c12)CCCc1ccccc1-3 | 33.3 µM (inactive) | 35.2 µM (inactive) | 4.92 µM (inactive) | 21.8 µM (inactive) | 31.1 µM (inactive) | 55.2 µM (inactive) | 37.4 µM (inactive) | 46.6 µM (inactive) | – | 44.5 µM (inactive) | 23.6 µM (inactive) | 30.1 µM (inactive) | – | 71.6 µM (inactive) | 43.2 µM (inactive) | 38.6 µM (inactive) | 71.8 µM (inactive) | 23.7 µM (inactive) | – |
| CC(=O)OC1OC(C2c3cccc(O)c3C(=O)c3c(O)cc(CO)cc32)C(O)C(O)C1O (stereo not given) | 2.8 µM (inactive) and 5.56 µM (inactive) | 2.78 µM (inactive) and 2.23 µM (inactive) | 3.78 µM (inactive) and 2.64 µM (inactive) | 2.32 µM (inactive) and 2 µM (inactive) | 3.74 µM (inactive) and 3.92 µM (inactive) | 4.14 µM (inactive) and 3.87 µM (inactive) | – | 10.5 µM (inactive) and 9.42 µM (inactive) | – | 5.38 µM (inactive) and 6.61 µM (inactive) | 4.97 µM (inactive) and 5.77 µM (inactive) | 2 µM (inactive) and 1.95 µM (inactive) | 2.92 µM (inactive) | 2.88 µM (inactive) and 3.33 µM (inactive) | 3.66 µM (inactive) and 3.03 µM (inactive) | 3.66 µM (inactive) | 6.47 µM (inactive) and 7.45 µM (inactive) | 4.22 µM (inactive) and 4.29 µM (inactive) | 3.27 µM (inactive) and 5.27 µM (inactive) |
| COc1ccc(NC(=S)NN=C(C)c2cccc(C(C)=NNC(=S)Nc3ccc(OC)cc3)n2)cc1 | 23.7 µM (inactive) | 11.4 µM (inactive) | > 100 µM (inactive) | 20.5 µM (inactive) | 28.2 µM (inactive) | 0.857 µM (active) | 6.44 µM (inactive) | 11.2 µM (inactive) | – | 7.13 µM (inactive) | > 100 µM (inactive) | 16.4 µM (inactive) | > 100 µM (inactive) | > 100 µM (inactive) | 64.7 µM (inactive) | 24.5 µM (inactive) | > 100 µM (inactive) | > 100 µM (inactive) | 3900 nM (inactive) |
| C=CCN1C[C@@H](C)N([C@@H](c2ccccc2)c2ccc(C(=O)N(CC)CC)cc2)C[C@@H]1C | > 100 µM (inactive) | > 100 µM (inactive) | > 100 µM (inactive) | > 100 µM (inactive) | > 100 µM (inactive) | > 100 µM (inactive) | > 100 µM (inactive) | > 100 µM (inactive) | > 100 µM (inactive) | > 100 µM (inactive) | > 100 µM (inactive) | > 100 µM (inactive) | > 100 µM (inactive) | > 100 µM (inactive) | > 100 µM (inactive) | > 100 µM (inactive) | – | > 100 µM (inactive) | – |
| O=C(c1ccc(Cl)cc1)N(C(=O)N1CCCCC1)c1ccccc1 | – | > 100 µM (inactive) | 33.7 µM (inactive) | 20.1 µM (inactive) | > 100 µM (inactive) | 56.4 µM (inactive) | > 100 µM (inactive) | > 100 µM (inactive) | 42.5 µM (inactive) | – | > 100 µM (inactive) | > 100 µM (inactive) | > 100 µM (inactive) | > 100 µM (inactive) | > 100 µM (inactive) | > 100 µM (inactive) | – | > 100 µM (inactive) | – |
